Measurements: US20260001875A1, “AMINOPYRIMIDINYL DERIVATIVES FOR THE TREATMENT OF PARKINSON'S DISEASE” (UNIVERSITY OF DUNDEE, priority 2022, published 2026)
Entries after “also recorded” stand apart in the source; their conditions may differ.

Molecular target: LRRK2 (Homo sapiens, UniProt Q5S007)
Experiment: LRRK2 degradation in PBMC
Format: cell-based
Set-up: endogenous in cells; host or cells: human peripheral blood mononuclear cells (PBMC)
Protocol: PBMC cells were separated from human blood following existing protocol (dx.doi.org/10.17504/protocols.io.bnhxmb7n) and pelleted by centrifugation at 1000 g for 2 min. The supernatant was discarded and the PBMC pellet was resuspended in PBS containing 2% FBS for washing. The suspension was centrifuged at 1000 g for 2 min again and the PBMC pellet was resuspended in RPMI-1640 (Gibco) media supplemented with 10% FBS. The cells were then seeded into 6-well plates and treated with testing compounds at indicated concentrations and time period. After treatment, the cells were collected into 2-ml Eppendorf tube and centrifuged at 500 g for 2 min to pellet the cells, the supernatant was discarded, and the pellet was resuspended in 1 ml PBS and centrifuged at 500 g for 2 min again. The PBMC pellet was lysed with 60 μL of lysis buffer containing 50 mM Tris-HCl, pH 7.5, 1% (v/v) Triton X-100, 1 mM EGTA, 1 mM sodium orthovanadate, 50 mM NaF, 0.1% (v/v) 2-mercaptoethanol, 10 mM 2-glycerophosphate, 5 mM sodium pyrophosphate, 0.1 μg/ml mycrocystin-LR (Enzo Life Sciences), 270 mM sucrose, 0.5 mM DIFP (Sigma, Cat #D0879) in addition to Complete EDTA-free protease inhibitor cocktail (Sigma-Aldrich Cat #11836170001). DIFP is highly toxic and must be prepared in a fume hood to a stock solution of 0.5 M in isopropanol. The lysed cells were then centrifuged at 1500 g for 15 min at 0° C. The supernatants were collected for analysis by quantitative immunoblotting. For long term storage, the supernatant was flash frozen and stored at −80° C. Protein concentrations of cell lysates were determined using Pierce™ BCA Protein Assay Kit (ThermoFisher).
Cell lysates containing a quarter of a volume of 4× NuPAGE LDS sample buffer (NP0007) supplemented with 5% β-mercaptoethanol, were heated at 95° C. for 5 minutes. 15 to 20 μg of samples were loaded onto pre-cast 4-12% Bis-Tris midi 20W or 26W gels (Thermofisher Scientific®, Cat #WG1402BOX or WG1403BOX) and resolved at 130 V for 2 hours with NuPAGE MOPS SDS running buffer (Thermofisher Scientific® Cat #NP0001-02). Proteins were electrophoretically transferred onto a 0.45 μm nitrocellulose membrane (GE Healthcare, Amersham Protran® Supported 0.45 mm NC) at 90 V for 90 min on ice in transfer buffer (48 mM Tris base and 39 mM glycine supplemented with 20% methanol). The transferred membrane was blocked with 5% (w/v) skim milk powder dissolved in tris-buffered saline with tween (TBS-T) (50 mM Tris base, 150 mM sodium chloride (NaCl), 0.1% (v/v) Tween-20) at room temperature for 1 hour. Membranes were washed three times with TBS-T and were incubated in primary antibody overnight at 4° C. Prior to secondary antibody incubation, membranes were washed three times for 15 minutes with TBS-T. The membranes were incubated with secondary antibody for 1 hour at room temperature, protected from light. Thereafter, the membranes were washed with TBS-T three times with a 15-minute incubation for each wash, and protein bands were acquired via near-infrared fluorescent detection using the Odyssey CLx imaging system and quantified using Image Studio software. Graphs were generated using Graphpad Prism version 8 software.
Monoclonal rabbit LRRK2 Ser935 (Cat #UDD2) was purified by MRC PPU Reagents and Services at the University of Dundee and was used at a final concentration of 1 μg/ml. Total LRRK2 (C-terminus) was from Antibodies Inc./Neuromab (Cat #75-253) and was diluted 1:1000. The MJFF monoclonal rabbit Rab10 pThr73, which was characterized previously (Lis et al., Biochem J. 2018 Jan. 2; 475(1):1-22.) was purchased from Abcam Inc. (ab230261) and diluted 1:1000. Mouse monoclonal alpha-tubulin (#3873) was purchased from Cell Signaling Technology and used at 1:1000. The mouse monoclonal anti-Rab10 total antibody was purchased from Nanotools (#0680-100/Rab10-605B11) and was used at a final concentration of 1 μg/ml. Mouse monoclonal Hif-1α was purchased from R&D Systems (Cat #MAB1536) and was diluted 1:1000.

LRRK2, sequence (Q5S007 whole entry): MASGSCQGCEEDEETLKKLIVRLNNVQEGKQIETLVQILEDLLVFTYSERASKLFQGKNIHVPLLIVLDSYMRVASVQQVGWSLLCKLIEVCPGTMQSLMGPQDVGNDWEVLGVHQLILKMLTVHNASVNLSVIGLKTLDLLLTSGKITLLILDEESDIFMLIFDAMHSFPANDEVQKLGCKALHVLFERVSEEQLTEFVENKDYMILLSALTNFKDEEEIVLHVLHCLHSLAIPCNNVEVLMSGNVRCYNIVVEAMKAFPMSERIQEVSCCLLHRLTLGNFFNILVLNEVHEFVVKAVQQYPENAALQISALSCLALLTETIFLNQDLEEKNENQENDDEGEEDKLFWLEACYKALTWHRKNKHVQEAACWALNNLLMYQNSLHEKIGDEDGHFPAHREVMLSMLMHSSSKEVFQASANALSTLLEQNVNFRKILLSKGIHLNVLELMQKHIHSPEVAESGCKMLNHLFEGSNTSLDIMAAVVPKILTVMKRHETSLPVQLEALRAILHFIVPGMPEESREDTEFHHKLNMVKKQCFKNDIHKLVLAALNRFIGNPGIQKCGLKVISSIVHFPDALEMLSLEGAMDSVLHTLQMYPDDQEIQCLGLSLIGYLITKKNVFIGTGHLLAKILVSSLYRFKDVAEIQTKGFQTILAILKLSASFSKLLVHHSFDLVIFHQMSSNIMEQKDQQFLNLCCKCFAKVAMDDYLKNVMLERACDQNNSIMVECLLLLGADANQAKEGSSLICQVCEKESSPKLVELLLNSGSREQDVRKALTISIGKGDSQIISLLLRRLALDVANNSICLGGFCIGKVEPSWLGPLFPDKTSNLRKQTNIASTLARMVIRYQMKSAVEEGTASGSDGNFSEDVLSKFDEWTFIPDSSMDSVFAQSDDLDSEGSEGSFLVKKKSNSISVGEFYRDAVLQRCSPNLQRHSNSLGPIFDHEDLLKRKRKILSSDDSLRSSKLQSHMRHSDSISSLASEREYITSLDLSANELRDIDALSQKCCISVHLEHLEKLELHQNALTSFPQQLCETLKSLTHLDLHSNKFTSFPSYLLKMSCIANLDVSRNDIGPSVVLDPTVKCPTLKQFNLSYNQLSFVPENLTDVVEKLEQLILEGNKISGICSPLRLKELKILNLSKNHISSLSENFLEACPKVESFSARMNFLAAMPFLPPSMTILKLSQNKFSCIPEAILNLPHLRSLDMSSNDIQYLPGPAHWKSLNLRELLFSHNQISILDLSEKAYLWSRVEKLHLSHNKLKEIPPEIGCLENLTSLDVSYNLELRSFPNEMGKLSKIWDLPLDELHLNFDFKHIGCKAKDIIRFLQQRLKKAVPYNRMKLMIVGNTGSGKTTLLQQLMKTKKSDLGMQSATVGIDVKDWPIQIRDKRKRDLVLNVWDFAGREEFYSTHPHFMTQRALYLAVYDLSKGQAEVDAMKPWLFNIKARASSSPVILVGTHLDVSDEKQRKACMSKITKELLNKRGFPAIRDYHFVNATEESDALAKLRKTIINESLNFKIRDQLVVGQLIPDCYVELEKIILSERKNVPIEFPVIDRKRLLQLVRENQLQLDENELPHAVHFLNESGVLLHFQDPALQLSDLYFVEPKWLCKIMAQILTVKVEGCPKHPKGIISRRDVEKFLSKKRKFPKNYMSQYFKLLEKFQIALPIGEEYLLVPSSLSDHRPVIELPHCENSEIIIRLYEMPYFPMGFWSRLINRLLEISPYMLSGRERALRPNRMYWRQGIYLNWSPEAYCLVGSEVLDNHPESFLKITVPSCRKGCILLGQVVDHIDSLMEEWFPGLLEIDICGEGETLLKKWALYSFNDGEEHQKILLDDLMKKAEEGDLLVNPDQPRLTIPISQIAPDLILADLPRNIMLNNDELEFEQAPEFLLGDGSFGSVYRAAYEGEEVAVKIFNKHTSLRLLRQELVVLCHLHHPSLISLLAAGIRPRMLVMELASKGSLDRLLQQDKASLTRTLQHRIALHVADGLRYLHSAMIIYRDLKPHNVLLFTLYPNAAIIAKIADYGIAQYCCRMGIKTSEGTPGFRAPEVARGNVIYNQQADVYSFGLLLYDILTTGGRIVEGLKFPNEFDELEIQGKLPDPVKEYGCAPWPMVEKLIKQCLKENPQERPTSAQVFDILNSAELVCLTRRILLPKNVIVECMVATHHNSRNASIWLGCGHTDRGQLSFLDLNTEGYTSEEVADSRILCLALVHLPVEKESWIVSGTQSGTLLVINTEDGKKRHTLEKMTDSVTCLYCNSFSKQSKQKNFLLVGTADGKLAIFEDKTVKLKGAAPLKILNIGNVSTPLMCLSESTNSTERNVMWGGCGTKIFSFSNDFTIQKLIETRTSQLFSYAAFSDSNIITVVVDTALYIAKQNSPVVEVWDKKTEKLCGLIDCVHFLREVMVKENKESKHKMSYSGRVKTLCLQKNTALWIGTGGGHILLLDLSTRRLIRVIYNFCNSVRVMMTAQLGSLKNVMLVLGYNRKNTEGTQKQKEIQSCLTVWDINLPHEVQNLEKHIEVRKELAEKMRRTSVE

LRRK2 degradation in PBMC (in words) (4 h treatment) | LRRK2 degradation in PBMC (in words) (time course at 300 nM) | Structure (SMILES) | DC50 (4 h treatment) [µM] | DC50 (24 h treatment) [µM] | Dmax of LRRK2 degradation in PBMC (24 h treatment) | T1/2 of LRRK2 degradation in PBMC (time course at 300 nM) [h] | LRRK2 degradation in PBMC (in words) (24 h treatment)
 |  | CNc1nc(Nc2ccc(C(=O)N3CCN(C[C@H]4CC[C@H](CSC(C)(C)[C@H](NC(=O)C5(F)CC5)C(=O)N5C[C@H](O)CC5C(=O)NCc5ccc(-c6scnc6C)cc5)CC4)CC3)cc2OC)ncc1Cl (stereo partly drawn) [XL01126, (2S,4R)-1-((R)-3-((((1R,4R)-4-((4-(4-((5-chloro-4-(methylamino)pyrimidin-2-yl)amino)-3-methoxybenzoyl)piperazin-1-yl)methyl)cyclohexyl)methyl)thio)-2-(1-fluorocyclopropane-1-carboxamido)-3-methylbutanoyl)-4-hydroxy-N-(4-(4-methylthiazol-5-yl)benzyl)pyrrolidine-2-carboxamide] | 0.072 | 0.017 | 80-90% | 2.4 | 
cannot degrade LRRK2 | cannot degrade LRRK2 | CNc1nc(Nc2ccc(C(=O)N3CCN(C[C@H]4CC[C@H](CSC(C)(C)[C@H](NC(=O)C5(F)CC5)C(=O)N5C[C@@H](O)CC5C(=O)NCc5ccc(-c6scnc6C)cc5)CC4)CC3)cc2OC)ncc1Cl (stereo partly drawn) [Cis-XL01126, (2S,4S)-1-((R)-3-((((1r,4R)-4-((4-(4-((5-chloro-4-(methylamino)pyrimidin-2-yl)amino)-3-methoxybenzoyl)piperazin-1-yl)methyl)cyclohexyl)methyl)thio)-2-(1-fluorocyclopropane-1-carboxamido)-3-methylbutanoyl)-4-hydroxy-N-(4-(4-methylthiazol-5-yl)benzyl)pyrrolidine-2-carboxamide] |  |  |  |  | degraded little LRRK2; also recorded: cannot degrade LRRK2
